# From the kinase profiling compilation of Christmann-Franck et al. (2016)
# Key:
# Assay in all cases: Caliper, Mobility shift assay off-chip
# PRKD1 (human) = PRKD1 (human) (UniProt Q15139)
# VRK2 (human) = VRK2 (human) (UniProt Q86Y07)
# [1] = tested on: ABL1 (human), P00519 [Q252H]
# PLK1 (human) = PLK1 (human) (UniProt P53350)
# ULK3 (human) = ULK3 (human) (UniProt Q6PHR2)
# [2] = tested on: RET (human), P07949 [V804L]
# ROS1 (human) = ROS1 (human) (UniProt P08922)
# [3] = tested on: BTK (human), Q06187 [R28H]
# MAP2K1 (human) = MAP2K1 (human) (UniProt Q02750)
# NUAK1 (human) = NUAK1 (human) (UniProt O60285)
# [4] = tested on: KIT (human), P10721 [V654A]
# MET (human) = MET (human) (UniProt P08581)
# [5] = tested on: ABL1 (human), P00519 [H396P]
# [6] = tested on: TEK (human), Q02763 [Y897S]
# GRK7 (human) = GRK7 (human) (UniProt Q8WTQ7)
# MTOR (human) = MTOR (human) (UniProt P42345)
# CSNK1G2 (human) = CSNK1G2 (human) (UniProt P78368)
# FRK (human) = FRK (human) (UniProt P42685)
# CDK7 CCNH MNAT1 (human) = CDK7 CCNH MNAT1 (human) (UniProt P50613+P51948+P51946)
# WNK2 (human) = WNK2 (human) (UniProt Q9Y3S1)
# MARK2 (human) = MARK2 (human) (UniProt Q7KZI7)
# CDK5 CDK5R1 p25 (human) = CDK5 CDK5R1 p25 (human) (UniProt Q15078+Q00535)
# TAOK1 (human) = TAOK1 (human) (UniProt Q7L7X3)
# IRAK4 (human) = IRAK4 (human) (UniProt Q9NWZ3)
# RPS6KA2 KD1 KD2 (human) = RPS6KA2 KD1 KD2 (human) (UniProt Q15349)
# [7] = tested on: SRC (human), P12931 [T341M]
# FLT1 (human) = FLT1 (human) (UniProt P17948)
# [8] = tested on: KIT (human), P10721 [V560G]
# MINK1 (human) = MINK1 (human) (UniProt Q8N4C8)
# HIPK1 (human) = HIPK1 (human) (UniProt Q86Z02)
# PRKCH (human) = PRKCH (human) (UniProt P24723)
# PLK2 (human) = PLK2 (human) (UniProt Q9NYY3)
# [9] = tested on: PDGFRA (human), P16234 [V561D]
# MAP3K9 (human) = MAP3K9 (human) (UniProt P80192)
# TXK (human) = TXK (human) (UniProt P42681)
# [10] = tested on: ABL1 (human), P00519 [Y253F]
# PRKACA (cow) = conditions: compound 10.0 µM; accession and sequence are those of the human protein
# MAPK1 (mouse) = conditions: compound 10.0 µM; accession and sequence are those of the human protein
# RPS6KA1 KD1 KD2 (rat) = conditions: compound 10.0 µM; accession and sequence are those of the human protein
# ROCK2 (rat) = conditions: compound 10.0 µM; accession and sequence are those of the human protein
# BLK (mouse) = conditions: compound 10.0 µM; accession and sequence are those of the human protein
# MARK2 (human), sequence (Q7KZI7 whole entry, looked up): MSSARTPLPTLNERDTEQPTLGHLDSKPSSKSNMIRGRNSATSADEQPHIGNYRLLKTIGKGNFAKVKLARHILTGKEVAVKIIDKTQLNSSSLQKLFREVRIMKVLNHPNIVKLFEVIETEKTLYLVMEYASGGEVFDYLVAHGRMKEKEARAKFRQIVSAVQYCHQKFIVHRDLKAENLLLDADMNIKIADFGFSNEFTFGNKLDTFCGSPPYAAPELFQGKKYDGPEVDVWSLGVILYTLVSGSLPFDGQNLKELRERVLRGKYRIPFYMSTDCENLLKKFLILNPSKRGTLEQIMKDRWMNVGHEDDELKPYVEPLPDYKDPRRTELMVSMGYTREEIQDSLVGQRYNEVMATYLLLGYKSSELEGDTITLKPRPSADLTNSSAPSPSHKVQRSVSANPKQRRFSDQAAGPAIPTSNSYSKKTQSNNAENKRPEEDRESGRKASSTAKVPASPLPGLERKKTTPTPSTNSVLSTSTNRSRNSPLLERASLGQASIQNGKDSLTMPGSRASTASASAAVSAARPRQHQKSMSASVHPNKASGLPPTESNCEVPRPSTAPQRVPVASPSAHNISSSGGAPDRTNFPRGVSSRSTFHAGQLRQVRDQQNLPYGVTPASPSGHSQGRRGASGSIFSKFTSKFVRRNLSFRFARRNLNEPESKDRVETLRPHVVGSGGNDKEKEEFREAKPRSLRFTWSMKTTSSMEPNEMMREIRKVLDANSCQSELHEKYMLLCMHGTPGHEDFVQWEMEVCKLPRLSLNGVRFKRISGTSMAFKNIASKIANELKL
# MINK1 (human), sequence (Q8N4C8 whole entry, looked up): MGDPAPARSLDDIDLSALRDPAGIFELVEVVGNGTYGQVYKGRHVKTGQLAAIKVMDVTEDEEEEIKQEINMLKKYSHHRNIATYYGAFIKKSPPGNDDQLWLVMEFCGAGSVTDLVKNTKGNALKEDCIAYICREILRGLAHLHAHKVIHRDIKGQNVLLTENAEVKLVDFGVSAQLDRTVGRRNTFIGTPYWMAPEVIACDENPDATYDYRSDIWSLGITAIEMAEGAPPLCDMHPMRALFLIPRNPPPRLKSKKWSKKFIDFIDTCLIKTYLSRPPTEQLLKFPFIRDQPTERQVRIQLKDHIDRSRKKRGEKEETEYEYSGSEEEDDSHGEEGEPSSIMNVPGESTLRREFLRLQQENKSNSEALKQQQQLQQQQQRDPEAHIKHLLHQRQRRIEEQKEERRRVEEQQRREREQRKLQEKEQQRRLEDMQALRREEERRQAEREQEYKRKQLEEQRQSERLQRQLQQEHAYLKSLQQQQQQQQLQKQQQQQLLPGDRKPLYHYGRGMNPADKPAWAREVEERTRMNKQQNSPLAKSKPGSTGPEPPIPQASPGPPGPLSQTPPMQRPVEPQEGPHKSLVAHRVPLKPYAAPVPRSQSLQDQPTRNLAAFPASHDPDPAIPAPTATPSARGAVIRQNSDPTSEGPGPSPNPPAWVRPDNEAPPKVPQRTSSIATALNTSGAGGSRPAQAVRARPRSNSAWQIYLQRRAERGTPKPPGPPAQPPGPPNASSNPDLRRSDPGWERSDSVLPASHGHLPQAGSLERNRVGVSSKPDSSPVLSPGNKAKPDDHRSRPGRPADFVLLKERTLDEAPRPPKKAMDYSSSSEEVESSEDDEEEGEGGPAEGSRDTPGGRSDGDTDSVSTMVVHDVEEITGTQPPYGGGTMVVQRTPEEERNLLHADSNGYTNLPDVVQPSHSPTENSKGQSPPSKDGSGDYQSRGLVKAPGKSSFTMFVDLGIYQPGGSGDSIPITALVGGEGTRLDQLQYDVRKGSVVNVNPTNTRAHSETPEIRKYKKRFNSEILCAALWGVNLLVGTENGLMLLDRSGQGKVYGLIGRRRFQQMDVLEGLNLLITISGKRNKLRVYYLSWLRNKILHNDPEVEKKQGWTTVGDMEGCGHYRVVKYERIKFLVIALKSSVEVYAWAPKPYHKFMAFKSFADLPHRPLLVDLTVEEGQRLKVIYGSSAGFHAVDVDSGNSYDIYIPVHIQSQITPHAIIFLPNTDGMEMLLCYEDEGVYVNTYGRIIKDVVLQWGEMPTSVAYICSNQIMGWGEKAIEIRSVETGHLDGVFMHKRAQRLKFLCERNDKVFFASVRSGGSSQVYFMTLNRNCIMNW
# FLT1 (human), sequence (P17948 whole entry, looked up): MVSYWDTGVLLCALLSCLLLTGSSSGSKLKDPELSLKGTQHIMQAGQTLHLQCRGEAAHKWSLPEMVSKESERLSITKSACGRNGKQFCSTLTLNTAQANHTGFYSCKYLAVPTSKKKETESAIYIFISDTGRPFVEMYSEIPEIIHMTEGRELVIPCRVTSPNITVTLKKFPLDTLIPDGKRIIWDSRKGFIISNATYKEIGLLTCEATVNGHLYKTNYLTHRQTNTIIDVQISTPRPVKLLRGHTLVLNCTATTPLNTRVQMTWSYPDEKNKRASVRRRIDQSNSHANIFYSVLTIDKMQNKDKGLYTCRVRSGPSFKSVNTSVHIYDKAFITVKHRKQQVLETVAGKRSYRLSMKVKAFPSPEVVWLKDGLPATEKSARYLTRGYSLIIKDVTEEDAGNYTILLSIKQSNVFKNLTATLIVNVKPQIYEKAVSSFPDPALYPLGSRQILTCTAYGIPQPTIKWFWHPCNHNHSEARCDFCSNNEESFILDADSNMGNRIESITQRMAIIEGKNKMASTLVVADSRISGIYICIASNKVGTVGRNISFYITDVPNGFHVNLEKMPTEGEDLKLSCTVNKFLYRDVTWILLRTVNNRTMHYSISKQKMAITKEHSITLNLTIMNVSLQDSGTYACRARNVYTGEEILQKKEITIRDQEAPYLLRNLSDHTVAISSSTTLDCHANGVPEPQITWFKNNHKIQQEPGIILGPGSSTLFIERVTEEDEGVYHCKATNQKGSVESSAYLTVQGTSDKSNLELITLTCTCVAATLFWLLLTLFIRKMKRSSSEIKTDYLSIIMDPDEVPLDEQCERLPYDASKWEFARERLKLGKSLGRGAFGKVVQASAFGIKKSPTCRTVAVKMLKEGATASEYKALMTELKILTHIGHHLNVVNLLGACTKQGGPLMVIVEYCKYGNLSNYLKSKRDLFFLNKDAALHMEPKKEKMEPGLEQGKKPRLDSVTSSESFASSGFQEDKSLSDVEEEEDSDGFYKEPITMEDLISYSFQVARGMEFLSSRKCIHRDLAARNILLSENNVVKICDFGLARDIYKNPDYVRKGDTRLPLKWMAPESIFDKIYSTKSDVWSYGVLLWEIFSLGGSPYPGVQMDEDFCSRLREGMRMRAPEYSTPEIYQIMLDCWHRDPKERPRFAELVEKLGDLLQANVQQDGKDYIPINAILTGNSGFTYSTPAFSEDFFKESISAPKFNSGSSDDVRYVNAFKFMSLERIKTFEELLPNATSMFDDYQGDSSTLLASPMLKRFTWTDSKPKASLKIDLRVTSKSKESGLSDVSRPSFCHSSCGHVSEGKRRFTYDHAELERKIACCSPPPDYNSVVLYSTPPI
# CDK5 CDK5R1 p25 (human), sequence (Q00535 whole entry, looked up): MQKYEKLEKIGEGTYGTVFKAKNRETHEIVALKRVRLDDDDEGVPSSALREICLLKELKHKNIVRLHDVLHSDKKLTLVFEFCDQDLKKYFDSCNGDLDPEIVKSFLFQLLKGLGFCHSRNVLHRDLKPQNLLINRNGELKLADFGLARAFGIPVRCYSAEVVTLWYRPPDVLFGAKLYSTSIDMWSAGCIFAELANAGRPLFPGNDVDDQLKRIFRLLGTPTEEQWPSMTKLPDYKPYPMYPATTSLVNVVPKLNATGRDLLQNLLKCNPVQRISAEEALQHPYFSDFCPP
# CDK5 CDK5R1 p25 (human), sequence (Q15078 whole entry, looked up): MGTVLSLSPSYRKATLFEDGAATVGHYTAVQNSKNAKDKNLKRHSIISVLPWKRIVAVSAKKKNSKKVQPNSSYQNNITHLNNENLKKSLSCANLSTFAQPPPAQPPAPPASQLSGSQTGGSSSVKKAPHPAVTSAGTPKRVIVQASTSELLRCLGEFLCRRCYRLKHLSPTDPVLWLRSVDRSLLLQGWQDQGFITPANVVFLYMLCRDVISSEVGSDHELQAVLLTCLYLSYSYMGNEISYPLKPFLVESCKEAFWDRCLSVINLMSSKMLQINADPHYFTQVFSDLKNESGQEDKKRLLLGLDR
# NUAK1 (human), sequence (O60285 whole entry, looked up): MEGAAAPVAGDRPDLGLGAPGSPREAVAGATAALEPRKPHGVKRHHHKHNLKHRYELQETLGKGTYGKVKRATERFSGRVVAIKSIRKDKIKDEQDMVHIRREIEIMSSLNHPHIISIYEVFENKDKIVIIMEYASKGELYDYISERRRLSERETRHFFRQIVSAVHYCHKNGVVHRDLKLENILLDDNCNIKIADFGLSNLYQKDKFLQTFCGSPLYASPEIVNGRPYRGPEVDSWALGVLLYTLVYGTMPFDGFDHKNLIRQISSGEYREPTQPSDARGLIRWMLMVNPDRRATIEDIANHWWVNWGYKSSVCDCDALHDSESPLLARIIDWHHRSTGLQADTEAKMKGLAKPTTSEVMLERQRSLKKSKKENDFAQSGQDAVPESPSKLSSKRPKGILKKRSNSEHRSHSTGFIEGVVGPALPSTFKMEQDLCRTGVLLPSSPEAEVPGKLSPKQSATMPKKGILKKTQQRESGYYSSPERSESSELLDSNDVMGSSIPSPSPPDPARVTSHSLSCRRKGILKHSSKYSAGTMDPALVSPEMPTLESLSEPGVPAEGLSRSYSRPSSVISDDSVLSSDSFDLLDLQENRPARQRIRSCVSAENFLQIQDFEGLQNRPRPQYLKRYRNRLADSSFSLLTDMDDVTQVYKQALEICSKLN
smiles,measurement,setting,value
C[C@@H](Nc1nc2c(C#CC3CC3)c[nH]c(=O)c2c2cc(-c3cn[nH]c3)ccc12)C(C)(C)C,residual activity,PRKD1 (human); compound 1.0 µM,86%
same,residual activity,VRK2 (human); compound 1.0 µM,111%
same,residual activity,[1]; compound 1.0 µM,54%
same,residual activity,PLK1 (human); compound 1.0 µM,81%
same,residual activity,ULK3 (human); compound 1.0 µM,47%
same,residual activity,[2]; compound 1.0 µM,2%
same,residual activity,ROS1 (human); compound 1.0 µM,98%
same,residual activity,[3]; compound 1.0 µM,100%
same,residual activity,MAP2K1 (human); compound 1.0 µM,96%
same,residual activity,NUAK1 (human); compound 1.0 µM,11%
same,residual activity,[4]; compound 1.0 µM,46%
same,residual activity,MET (human); compound 1.0 µM,96%
same,residual activity,[5]; compound 1.0 µM,49%
same,residual activity,[6]; compound 1.0 µM,82%
same,residual activity,GRK7 (human); compound 1.0 µM,90%
same,residual activity,MTOR (human); compound 1.0 µM,89%
same,residual activity,CSNK1G2 (human); compound 1.0 µM,101%
same,residual activity,FRK (human); compound 1.0 µM,92%
same,residual activity,CDK7 CCNH MNAT1 (human); compound 1.0 µM,102%
same,residual activity,WNK2 (human); compound 1.0 µM,98%
same,residual activity,MARK2 (human); compound 1.0 µM,87%
same,residual activity,CDK5 CDK5R1 p25 (human); compound 1.0 µM,104%
same,residual activity,TAOK1 (human); compound 1.0 µM,95%
same,residual activity,IRAK4 (human); compound 1.0 µM,122%
same,residual activity,RPS6KA2 KD1 KD2 (human); compound 1.0 µM,7%
same,residual activity,[7]; compound 1.0 µM,55%
same,residual activity,FLT1 (human); compound 1.0 µM,28%
same,residual activity,[8]; compound 1.0 µM,9%
same,residual activity,MINK1 (human); compound 1.0 µM,117%
same,residual activity,HIPK1 (human); compound 1.0 µM,109%
same,residual activity,PRKCH (human); compound 1.0 µM,109%
same,residual activity,PLK2 (human); compound 1.0 µM,72%
same,residual activity,[9]; compound 1.0 µM,1%
same,residual activity,MAP3K9 (human); compound 1.0 µM,1%
same,residual activity,TXK (human); compound 1.0 µM,84%
same,residual activity,[10]; compound 1.0 µM,60%
CC(C)(C)c1nc2c3ccc(F)cc3c3c(=O)[nH]ccc3c2[nH]1,residual activity,PRKACA (cow),45%
same,residual activity,MAPK1 (mouse),11%
same,residual activity,RPS6KA1 KD1 KD2 (rat),10%
same,residual activity,ROCK2 (rat),21%
O=C(N[C@@H](COc1ccc2[nH]c(=O)[nH]c2c1)c1ccccc1)c1cccn(Cc2ccc(F)c(F)c2)c1=O,residual activity,PRKD1 (human); compound 10.0 µM,100%
same,residual activity,VRK2 (human); compound 10.0 µM,99%
same,residual activity,[1]; compound 10.0 µM,69%
same,residual activity,PLK1 (human); compound 10.0 µM,116%
same,residual activity,ULK3 (human); compound 10.0 µM,99%
same,residual activity,[2]; compound 10.0 µM,112%
same,residual activity,ROS1 (human); compound 10.0 µM,111%
same,residual activity,[3]; compound 10.0 µM,106%
same,residual activity,MAP2K1 (human); compound 10.0 µM,102%
same,residual activity,NUAK1 (human); compound 10.0 µM,106%
same,residual activity,[4]; compound 10.0 µM,102%
same,residual activity,MET (human); compound 10.0 µM,95%
same,residual activity,[5]; compound 10.0 µM,114%
same,residual activity,[6]; compound 10.0 µM,111%
same,residual activity,GRK7 (human); compound 10.0 µM,108%
same,residual activity,MTOR (human); compound 10.0 µM,102%
same,residual activity,CSNK1G2 (human); compound 10.0 µM,97%
same,residual activity,FRK (human); compound 10.0 µM,96%
same,residual activity,BLK (mouse),94%
same,residual activity,CDK7 CCNH MNAT1 (human); compound 10.0 µM,95%
same,residual activity,WNK2 (human); compound 10.0 µM,104%
same,residual activity,MARK2 (human); compound 10.0 µM,96%
same,residual activity,CDK5 CDK5R1 p25 (human); compound 10.0 µM,111%
same,residual activity,TAOK1 (human); compound 10.0 µM,96%
same,residual activity,IRAK4 (human); compound 10.0 µM,108%
same,residual activity,RPS6KA2 KD1 KD2 (human); compound 10.0 µM,102%
same,residual activity,[7]; compound 10.0 µM,102%
same,residual activity,FLT1 (human); compound 10.0 µM,95%
same,residual activity,[8]; compound 10.0 µM,99%
same,residual activity,MINK1 (human); compound 10.0 µM,113%
same,residual activity,HIPK1 (human); compound 10.0 µM,99%
same,residual activity,PRKCH (human); compound 10.0 µM,96%
same,residual activity,PLK2 (human); compound 10.0 µM,97%
same,residual activity,[9]; compound 10.0 µM,112%
same,residual activity,MAP3K9 (human); compound 10.0 µM,91%
same,residual activity,TXK (human); compound 10.0 µM,138%
same,residual activity,[10]; compound 10.0 µM,110%
COc1ccc(C#Cc2ccc3ncc4ncn(-c5ccc(CCN)cc5)c4c3c2)cc1,residual activity,PRKD1 (human); compound 10.0 µM,32%
same,residual activity,VRK2 (human); compound 10.0 µM,115%
same,residual activity,ROS1 (human); compound 10.0 µM,54%
same,residual activity,MAP2K1 (human); compound 10.0 µM,43%
same,residual activity,NUAK1 (human); compound 10.0 µM,66%
same,residual activity,[4]; compound 10.0 µM,34%
same,residual activity,MET (human); compound 10.0 µM,17%
same,residual activity,CSNK1G2 (human); compound 10.0 µM,39%
same,residual activity,FRK (human); compound 10.0 µM,90%
same,residual activity,CDK7 CCNH MNAT1 (human); compound 10.0 µM,73%
same,residual activity,WNK2 (human); compound 10.0 µM,65%
same,residual activity,MARK2 (human); compound 10.0 µM,108%
same,residual activity,CDK5 CDK5R1 p25 (human); compound 10.0 µM,82%
same,residual activity,IRAK4 (human); compound 10.0 µM,73%
same,residual activity,RPS6KA2 KD1 KD2 (human); compound 10.0 µM,8%
same,residual activity,FLT1 (human); compound 10.0 µM,6%
same,residual activity,[8]; compound 10.0 µM,18%
same,residual activity,MINK1 (human); compound 10.0 µM,23%
same,residual activity,HIPK1 (human); compound 10.0 µM,78%
same,residual activity,PRKCH (human); compound 10.0 µM,95%
same,residual activity,PLK2 (human); compound 10.0 µM,107%
same,residual activity,[9]; compound 10.0 µM,10%
same,residual activity,MAP3K9 (human); compound 10.0 µM,8%
O=C(NCCCNc1nc(Nc2cccc(NC(=O)N3CCCC3)c2)ncc1I)c1cccs1,residual activity,PRKD1 (human); compound 1.0 µM,53%
same,residual activity,VRK2 (human); compound 1.0 µM,117%
same,residual activity,ROS1 (human); compound 1.0 µM,117%
same,residual activity,MAP2K1 (human); compound 1.0 µM,79%
same,residual activity,NUAK1 (human); compound 1.0 µM,8%
same,residual activity,[4]; compound 1.0 µM,73%
same,residual activity,MET (human); compound 1.0 µM,137%
same,residual activity,CSNK1G2 (human); compound 1.0 µM,89%
same,residual activity,FRK (human); compound 1.0 µM,93%
same,residual activity,CDK7 CCNH MNAT1 (human); compound 1.0 µM,75%
same,residual activity,WNK2 (human); compound 1.0 µM,95%
same,residual activity,MARK2 (human); compound 1.0 µM,9%
same,residual activity,CDK5 CDK5R1 p25 (human); compound 1.0 µM,46%
same,residual activity,IRAK4 (human); compound 1.0 µM,85%
same,residual activity,RPS6KA2 KD1 KD2 (human); compound 1.0 µM,120%
same,residual activity,FLT1 (human); compound 1.0 µM,14%
same,residual activity,[8]; compound 1.0 µM,15%
same,residual activity,MINK1 (human); compound 1.0 µM,97%
same,residual activity,HIPK1 (human); compound 1.0 µM,82%
same,residual activity,PRKCH (human); compound 1.0 µM,95%
same,residual activity,PLK2 (human); compound 1.0 µM,112%
same,residual activity,[9]; compound 1.0 µM,14%
same,residual activity,MAP3K9 (human); compound 1.0 µM,23%
